Measurements as given in ChEMBL document CHEMBL1145498, “A systematic interaction map of validated kinase inhibitors with Ser/Thr kinases” (Proc Natl Acad Sci U S A, 2007).

Assays:
[1] = target: Ribosomal protein S6 kinase alpha-3 (Homo sapiens) (UniProt P51812)
[2] = target: Serine/threonine-protein kinase 25 (Homo sapiens) (UniProt O00506)
[3] = target: Calcium/calmodulin-dependent protein kinase type II subunit delta (Homo sapiens) (UniProt Q13557)
[4] = target: TRAF2 and NCK-interacting protein kinase (Homo sapiens) (UniProt Q9UKE5)
TRAF2 and NCK-interacting protein kinase (Homo sapiens), sequence (Q9UKE5 whole entry, looked up): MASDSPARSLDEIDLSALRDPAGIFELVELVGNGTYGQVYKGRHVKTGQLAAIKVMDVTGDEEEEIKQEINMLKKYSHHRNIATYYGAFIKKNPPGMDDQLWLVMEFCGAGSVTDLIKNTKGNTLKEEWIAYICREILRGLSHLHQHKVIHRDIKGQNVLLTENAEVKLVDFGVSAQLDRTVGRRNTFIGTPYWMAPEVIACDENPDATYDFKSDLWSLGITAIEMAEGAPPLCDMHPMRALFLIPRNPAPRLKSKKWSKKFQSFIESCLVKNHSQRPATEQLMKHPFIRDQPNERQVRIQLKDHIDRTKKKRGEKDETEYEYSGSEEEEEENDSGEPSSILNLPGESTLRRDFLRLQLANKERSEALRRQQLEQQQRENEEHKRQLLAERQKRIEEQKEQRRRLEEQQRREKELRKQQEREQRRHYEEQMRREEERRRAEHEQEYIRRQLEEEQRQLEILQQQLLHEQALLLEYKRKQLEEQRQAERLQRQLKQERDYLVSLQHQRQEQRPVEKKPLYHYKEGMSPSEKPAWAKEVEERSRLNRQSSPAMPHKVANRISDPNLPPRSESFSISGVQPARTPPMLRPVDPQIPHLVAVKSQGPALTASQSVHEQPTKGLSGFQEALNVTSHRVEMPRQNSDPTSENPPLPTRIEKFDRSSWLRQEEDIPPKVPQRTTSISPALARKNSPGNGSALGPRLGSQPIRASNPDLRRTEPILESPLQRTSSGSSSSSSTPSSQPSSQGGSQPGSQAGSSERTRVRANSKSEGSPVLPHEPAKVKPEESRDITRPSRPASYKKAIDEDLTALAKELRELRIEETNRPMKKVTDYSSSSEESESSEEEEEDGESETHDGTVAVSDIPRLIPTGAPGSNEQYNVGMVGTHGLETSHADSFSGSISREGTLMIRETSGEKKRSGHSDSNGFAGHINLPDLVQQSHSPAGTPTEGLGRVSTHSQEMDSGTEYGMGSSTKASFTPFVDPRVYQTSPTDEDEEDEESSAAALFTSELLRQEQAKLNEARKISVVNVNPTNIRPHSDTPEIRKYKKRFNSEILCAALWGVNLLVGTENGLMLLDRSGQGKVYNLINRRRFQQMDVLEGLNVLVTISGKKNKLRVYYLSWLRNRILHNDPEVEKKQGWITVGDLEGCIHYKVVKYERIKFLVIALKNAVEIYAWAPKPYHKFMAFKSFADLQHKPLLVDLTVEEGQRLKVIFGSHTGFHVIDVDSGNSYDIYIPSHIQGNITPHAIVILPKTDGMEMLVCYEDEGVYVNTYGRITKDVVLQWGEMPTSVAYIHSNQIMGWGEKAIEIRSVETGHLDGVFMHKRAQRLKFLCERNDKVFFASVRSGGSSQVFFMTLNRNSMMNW

[5] = target: Serine/threonine-protein kinase pim-3 (Homo sapiens) (UniProt Q86V86)
[6] = target: Serine/threonine-protein kinase PLK1 (Homo sapiens) (UniProt P53350)
Serine/threonine-protein kinase PLK1 (Homo sapiens), sequence (P53350 whole entry): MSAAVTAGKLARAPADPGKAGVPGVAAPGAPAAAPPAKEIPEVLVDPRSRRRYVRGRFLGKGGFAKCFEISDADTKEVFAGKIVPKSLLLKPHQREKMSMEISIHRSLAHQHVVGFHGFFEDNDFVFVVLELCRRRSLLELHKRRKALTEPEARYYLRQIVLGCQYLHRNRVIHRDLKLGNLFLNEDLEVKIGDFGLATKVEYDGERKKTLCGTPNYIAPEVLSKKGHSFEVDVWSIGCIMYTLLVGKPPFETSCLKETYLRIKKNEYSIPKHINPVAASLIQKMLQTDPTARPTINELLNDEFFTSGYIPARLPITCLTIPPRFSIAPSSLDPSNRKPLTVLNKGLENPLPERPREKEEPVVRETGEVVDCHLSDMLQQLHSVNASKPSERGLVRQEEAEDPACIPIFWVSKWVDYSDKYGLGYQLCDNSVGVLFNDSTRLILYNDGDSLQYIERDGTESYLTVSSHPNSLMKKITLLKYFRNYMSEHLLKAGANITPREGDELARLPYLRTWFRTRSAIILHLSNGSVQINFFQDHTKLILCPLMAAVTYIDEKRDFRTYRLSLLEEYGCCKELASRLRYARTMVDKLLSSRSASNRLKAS

[7] = target: Calcium/calmodulin-dependent protein kinase type 1G (Homo sapiens) (UniProt Q96NX5)
Calcium/calmodulin-dependent protein kinase type 1G (Homo sapiens), sequence (Q96NX5 whole entry): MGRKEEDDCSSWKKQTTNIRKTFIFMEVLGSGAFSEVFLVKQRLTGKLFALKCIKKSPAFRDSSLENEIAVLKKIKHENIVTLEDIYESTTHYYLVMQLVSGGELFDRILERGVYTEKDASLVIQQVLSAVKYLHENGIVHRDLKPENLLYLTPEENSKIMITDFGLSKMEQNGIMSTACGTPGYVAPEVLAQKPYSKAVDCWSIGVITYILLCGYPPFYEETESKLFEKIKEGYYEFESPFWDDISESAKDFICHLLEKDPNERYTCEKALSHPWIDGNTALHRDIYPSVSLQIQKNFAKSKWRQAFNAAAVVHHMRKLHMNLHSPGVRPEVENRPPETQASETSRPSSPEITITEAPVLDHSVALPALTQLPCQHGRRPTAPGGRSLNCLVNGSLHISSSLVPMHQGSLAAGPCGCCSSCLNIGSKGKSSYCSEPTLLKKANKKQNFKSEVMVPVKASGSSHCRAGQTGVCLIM

[8] = target: Serine/threonine-protein kinase pim-2 (Homo sapiens, UniProt Q9P1W9)
Serine/threonine-protein kinase pim-2, sequence (Q9P1W9 whole entry, looked up): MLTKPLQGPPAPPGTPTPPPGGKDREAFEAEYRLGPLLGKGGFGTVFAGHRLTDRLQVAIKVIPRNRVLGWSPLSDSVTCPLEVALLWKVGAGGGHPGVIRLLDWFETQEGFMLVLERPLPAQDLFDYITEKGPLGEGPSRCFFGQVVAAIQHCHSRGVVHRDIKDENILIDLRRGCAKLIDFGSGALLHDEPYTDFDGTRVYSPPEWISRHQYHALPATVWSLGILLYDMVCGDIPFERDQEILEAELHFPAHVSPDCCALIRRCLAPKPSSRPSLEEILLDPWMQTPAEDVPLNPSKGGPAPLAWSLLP

[9] = target: T1, Calcium/calmodulin-dependent protein kinase type IV (Homo sapiens) (UniProt Q16566)
T1 sequence (whole entry): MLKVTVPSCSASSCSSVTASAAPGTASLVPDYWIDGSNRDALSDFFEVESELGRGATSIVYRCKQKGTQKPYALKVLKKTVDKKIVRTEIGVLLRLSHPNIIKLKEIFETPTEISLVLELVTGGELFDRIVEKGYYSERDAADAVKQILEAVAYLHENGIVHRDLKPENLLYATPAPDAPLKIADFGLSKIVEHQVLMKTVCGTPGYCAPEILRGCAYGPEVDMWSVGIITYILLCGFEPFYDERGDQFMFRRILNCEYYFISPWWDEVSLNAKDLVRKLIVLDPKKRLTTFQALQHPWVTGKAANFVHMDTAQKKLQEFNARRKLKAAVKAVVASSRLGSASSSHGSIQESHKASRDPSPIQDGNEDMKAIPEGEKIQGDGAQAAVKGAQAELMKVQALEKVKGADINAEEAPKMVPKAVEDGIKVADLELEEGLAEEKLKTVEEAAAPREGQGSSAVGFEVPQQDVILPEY

[10] = target: Serine/threonine-protein kinase 16 (Homo sapiens) (UniProt O75716)
Serine/threonine-protein kinase 16 (Homo sapiens), sequence (O75716 whole entry): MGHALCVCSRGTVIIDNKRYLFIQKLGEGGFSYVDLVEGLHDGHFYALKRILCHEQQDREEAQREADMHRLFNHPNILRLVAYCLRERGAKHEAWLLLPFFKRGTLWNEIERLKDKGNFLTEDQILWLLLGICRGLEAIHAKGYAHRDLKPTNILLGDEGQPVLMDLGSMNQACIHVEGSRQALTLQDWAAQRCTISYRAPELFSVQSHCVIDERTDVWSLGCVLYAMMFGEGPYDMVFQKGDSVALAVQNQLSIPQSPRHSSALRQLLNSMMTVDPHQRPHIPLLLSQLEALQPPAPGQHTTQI

[11] = target: T2, Myotonin-protein kinase (Homo sapiens) (UniProt Q09013)
T2 sequence (whole entry): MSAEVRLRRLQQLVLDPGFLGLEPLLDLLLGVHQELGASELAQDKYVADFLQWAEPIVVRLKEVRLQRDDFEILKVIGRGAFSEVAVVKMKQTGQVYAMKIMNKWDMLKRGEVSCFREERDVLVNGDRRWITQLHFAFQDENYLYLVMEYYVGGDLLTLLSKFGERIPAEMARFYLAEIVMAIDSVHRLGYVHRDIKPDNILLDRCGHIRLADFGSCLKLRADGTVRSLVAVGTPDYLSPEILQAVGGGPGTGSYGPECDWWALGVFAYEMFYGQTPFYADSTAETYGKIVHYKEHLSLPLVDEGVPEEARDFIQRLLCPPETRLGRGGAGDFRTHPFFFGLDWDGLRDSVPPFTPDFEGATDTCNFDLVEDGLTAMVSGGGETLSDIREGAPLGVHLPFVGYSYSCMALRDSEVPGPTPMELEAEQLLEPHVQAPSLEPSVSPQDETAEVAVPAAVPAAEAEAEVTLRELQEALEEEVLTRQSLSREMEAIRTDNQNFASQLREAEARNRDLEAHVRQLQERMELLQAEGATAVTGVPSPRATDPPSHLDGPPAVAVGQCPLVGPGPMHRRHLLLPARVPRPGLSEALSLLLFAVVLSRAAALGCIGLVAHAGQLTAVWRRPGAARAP

[12] = target: Serine/threonine-protein kinase RIO2 (Homo sapiens) (UniProt Q9BVS4)
[13] = target: Calcium/calmodulin-dependent protein kinase type II subunit alpha (Homo sapiens) (UniProt Q9UQM7)
[14] = target: T3, 3-phosphoinositide-dependent protein kinase 1 (Homo sapiens) (UniProt O15530)
T3 sequence (whole entry): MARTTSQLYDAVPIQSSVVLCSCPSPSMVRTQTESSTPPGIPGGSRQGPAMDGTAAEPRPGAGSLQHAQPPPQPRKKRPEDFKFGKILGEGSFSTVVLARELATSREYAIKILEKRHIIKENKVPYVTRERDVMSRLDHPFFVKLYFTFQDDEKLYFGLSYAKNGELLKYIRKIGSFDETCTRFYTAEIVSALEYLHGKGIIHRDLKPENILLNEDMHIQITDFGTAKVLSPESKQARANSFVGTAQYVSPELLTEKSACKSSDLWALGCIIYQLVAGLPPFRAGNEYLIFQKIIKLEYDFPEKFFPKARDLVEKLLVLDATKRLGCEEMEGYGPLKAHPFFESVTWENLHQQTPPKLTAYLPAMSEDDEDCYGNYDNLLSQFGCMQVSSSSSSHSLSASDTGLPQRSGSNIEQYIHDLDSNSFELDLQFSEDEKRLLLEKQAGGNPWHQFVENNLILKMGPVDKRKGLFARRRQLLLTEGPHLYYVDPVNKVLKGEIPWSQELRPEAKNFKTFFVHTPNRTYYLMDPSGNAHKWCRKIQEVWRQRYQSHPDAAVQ

[15] = target: Calcium/calmodulin-dependent protein kinase type II subunit gamma (Homo sapiens) (UniProt Q13555)
[16] = target: Serine/threonine-protein kinase Chk2 (Homo sapiens, UniProt O96017)
[17] = target: T4, Lymphokine-activated killer T-cell-originated protein kinase (Homo sapiens) (UniProt Q96KB5)
T4 sequence (whole entry): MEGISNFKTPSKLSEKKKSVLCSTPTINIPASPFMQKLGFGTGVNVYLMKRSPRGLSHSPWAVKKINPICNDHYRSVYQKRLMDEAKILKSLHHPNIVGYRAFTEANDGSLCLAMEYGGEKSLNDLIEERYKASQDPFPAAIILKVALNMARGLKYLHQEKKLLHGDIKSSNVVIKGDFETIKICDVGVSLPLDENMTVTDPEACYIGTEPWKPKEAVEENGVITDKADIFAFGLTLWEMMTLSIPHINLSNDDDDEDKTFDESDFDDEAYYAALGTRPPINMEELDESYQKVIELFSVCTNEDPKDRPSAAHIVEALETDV

[18] = target: Mitogen-activated protein kinase 11 (Homo sapiens, UniProt Q15759)
Mitogen-activated protein kinase 11, sequence (Q15759 whole entry): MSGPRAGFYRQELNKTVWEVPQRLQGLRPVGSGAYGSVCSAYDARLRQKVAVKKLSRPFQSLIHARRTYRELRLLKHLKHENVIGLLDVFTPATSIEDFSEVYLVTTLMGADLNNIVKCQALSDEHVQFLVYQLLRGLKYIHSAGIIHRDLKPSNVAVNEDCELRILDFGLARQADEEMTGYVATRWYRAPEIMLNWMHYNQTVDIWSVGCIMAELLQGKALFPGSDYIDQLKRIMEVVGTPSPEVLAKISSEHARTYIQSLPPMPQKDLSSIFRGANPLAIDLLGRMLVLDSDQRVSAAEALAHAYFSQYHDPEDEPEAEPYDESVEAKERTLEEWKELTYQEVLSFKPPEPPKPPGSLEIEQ

Calcium/calmodulin-dependent protein kinase type II subunit delta (Homo sapiens), sequence (Q13557 whole entry): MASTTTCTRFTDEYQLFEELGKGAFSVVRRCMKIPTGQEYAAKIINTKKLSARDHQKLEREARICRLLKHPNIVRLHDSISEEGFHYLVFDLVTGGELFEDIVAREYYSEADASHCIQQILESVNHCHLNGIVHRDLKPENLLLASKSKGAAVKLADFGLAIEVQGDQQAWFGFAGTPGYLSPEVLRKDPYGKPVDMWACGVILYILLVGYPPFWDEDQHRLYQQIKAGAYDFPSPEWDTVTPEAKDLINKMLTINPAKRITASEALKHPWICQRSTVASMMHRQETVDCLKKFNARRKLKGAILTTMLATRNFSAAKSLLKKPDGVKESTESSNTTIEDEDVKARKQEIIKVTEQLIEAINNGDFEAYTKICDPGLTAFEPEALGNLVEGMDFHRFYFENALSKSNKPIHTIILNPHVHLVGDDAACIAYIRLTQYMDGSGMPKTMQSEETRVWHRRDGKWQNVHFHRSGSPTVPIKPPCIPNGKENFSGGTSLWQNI
Ribosomal protein S6 kinase alpha-3 (Homo sapiens), sequence (P51812 whole entry): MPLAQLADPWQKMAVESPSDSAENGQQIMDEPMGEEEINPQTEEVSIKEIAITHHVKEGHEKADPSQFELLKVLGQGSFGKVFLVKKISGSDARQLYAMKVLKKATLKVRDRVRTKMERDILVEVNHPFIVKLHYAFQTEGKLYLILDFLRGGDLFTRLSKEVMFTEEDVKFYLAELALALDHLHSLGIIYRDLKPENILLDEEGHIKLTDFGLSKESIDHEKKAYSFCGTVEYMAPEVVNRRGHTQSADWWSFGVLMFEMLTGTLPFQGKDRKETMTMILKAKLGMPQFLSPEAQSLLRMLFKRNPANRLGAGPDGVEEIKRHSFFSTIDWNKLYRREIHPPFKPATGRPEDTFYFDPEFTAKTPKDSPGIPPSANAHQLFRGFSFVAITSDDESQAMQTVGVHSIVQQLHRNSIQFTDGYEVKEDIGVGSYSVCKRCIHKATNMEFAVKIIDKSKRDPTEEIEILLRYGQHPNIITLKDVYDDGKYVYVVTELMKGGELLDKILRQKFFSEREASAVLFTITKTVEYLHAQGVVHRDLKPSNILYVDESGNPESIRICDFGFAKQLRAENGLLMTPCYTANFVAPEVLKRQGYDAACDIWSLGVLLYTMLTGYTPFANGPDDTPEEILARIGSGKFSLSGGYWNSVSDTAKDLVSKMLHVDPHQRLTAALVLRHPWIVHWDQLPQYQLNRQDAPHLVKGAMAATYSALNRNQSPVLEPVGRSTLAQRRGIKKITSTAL

Row | SMILES | ΔTm [1] [°C] | ΔTm [2] [°C] | ΔTm [3] [°C] | ΔTm [4] [°C] | ΔTm [5] [°C] | ΔTm [6] [°C] | ΔTm [7] [°C] | ΔTm [8] [°C] | ΔTm [9] [°C] | ΔTm [10] [°C] | ΔTm [11] [°C] | ΔTm [12] [°C] | ΔTm [13] [°C] | ΔTm [14] [°C] | ΔTm [15] [°C] | ΔTm [16] [°C] | ΔTm [17] [°C] | ΔTm [18] [°C]
1 | O=C1Nc2ccc(S(=O)(=O)O)cc2/C1=C1/Nc2ccccc2/C1=N\O | 5.6 | 2.2 | 1.2 | 2.4 | 5.1 | 1.1 | 2 | 3.5 | 1.3 | 4.9 | 1.8 | 1.2 | 4.8 | 0.7 | 2.5 | 4.5 | 0.4 | 1.4
2 | CCOC(=O)c1cnc2oc3ccc(O)cc3c2c1-c1ccccc1 | 4.4 | 0 | -0.1 | 1.3 | 5.2 | 0.8 | 0.1 | 6.3 | 0.8 | 5.4 | -0.4 | 1.2 | 0.7 | -0.5 | 0.5 | 0.8 | -0.2 | -0.6
3 | O=c1c(O)c(-c2ccc(O)c(O)c2)oc2cc(O)cc(O)c12 [QUERCETIN] | 5.6 | 5.3 | 2.7 | 3.3 | 8.8 | 1.7 | 2.7 | 8.6 | 6.7 | 4.8 | 3 | 4.2 | 4.1 | 1.1 | 4.9 | 4.8 | 0.4 | 2.2
4 | COc1cc(O)c2c(c1)oc(=O)c1c3cc(O)c(O)cc3oc21 [WEDELOLACTONE] | 1.8 | 2.7 | 0.5 | 1.3 | 5.9 | 1.4 | 0.1 | 2.2 | 0.8 | 0.1 | 2.7 | 3.6 | 1.2 | -0.4 | 0.2 | 1.8 | 0 | 1.5
5 | O=c1cc(N2CCOCC2)oc2c1ccc1ccccc12 | 0.3 | 0.6 | -0.2 | 0.3 | 2 | 2.3 | 0.1 | 1 | -0.1 | 0.4 | 0.2 | 0.4 | 0.3 | 0 | 0.2 | -0.3 | 0.7 | 1.1
6 | C[S+]([O-])c1ccc(-c2nc(-c3ccc(F)cc3)c(-c3ccncc3)[nH]2)cc1 (stereo not drawn) [SB-203580] | 0.3 | 0.9 | -0.3 | 2 | 0 | 0.2 | -0.2 | 0 | 0 | 0.4 | 0.1 | -0.2 | 0.3 | -0.1 | 0 | -0.5 | 0.2 | 9.6
